In patent US10124004B2, “Pyrido[3,4-d]pyrimidine derivative and pharmaceutically acceptable salt thereof” (Teijin Pharma Limited, priority 2015, dated 2018):
Where two headings read alike, the source gives them in different places.

What was measured:
[1] = molecular target: T1, CDK4/cyclin D3 (Homo sapiens, UniProt P11802); experiment: Human CDK4/cyclin D3 inhibitory activity (QS S Assist CDK4/Cyclin D3_FP Kit, IMAP fluorescence polarization); type: biochemical
T1 construct: purchased Carna Biosciences, Inc. QS S Assist CDK4/Cyclin D3_FP Kit
Procedure, shortened: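 IMAP fluorescence-polarization kinase assay with kit ATP/substrate/metal mix and 12.5 to 25 ng/well enzyme in 20 mM HEPES pH 7.4, 0.01% Tween20, 2 mM DTT. Reaction ran 45 min at room temperature, then binding reagent was added for 30 min in the dark. IC50 was taken from dose-response fits of percent inhibition.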

[2] = molecular target: T2, CDK2/cyclin A2 (Homo sapiens, UniProt P24941); experiment: Human CDK2/cyclin A2 inhibitory activity (QS S Assist CDK2/Cyclin A2_FP Kit, IMAP fluorescence polarization); type: biochemical
T2 construct: purchased Carna Biosciences, Inc. QS S Assist CDK2/Cyclin A2_FP Kit
Procedure, shortened: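 Kinase activity read as fluorescence polarization (485/535 nm) after phosphorylated fluorescent substrate binds IMAP reagent (30 min, RT, dark). Enzyme (2.5 ng/well) reacted 60 min at RT with ATP/substrate/metal in HEPES pH 7.4 buffer with Tween 20 and DTT; no-enzyme wells define 0% activity; IC50 by curve fit.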

[3] = Human CDK4/cyclin D3 inhibitory activity, read-out: CDK4 Activity symbol
[4] = Human CDK2/cyclin A2 inhibitory activity, read-out: CDK2 Activity symbol
[5] = 50% inhibitory concentration against CDK4/cyclin D3, given as class symbol
[6] = 50% inhibitory concentration against CDK2/cyclin A2, given as class symbol

T1 sequence (P11802 whole entry): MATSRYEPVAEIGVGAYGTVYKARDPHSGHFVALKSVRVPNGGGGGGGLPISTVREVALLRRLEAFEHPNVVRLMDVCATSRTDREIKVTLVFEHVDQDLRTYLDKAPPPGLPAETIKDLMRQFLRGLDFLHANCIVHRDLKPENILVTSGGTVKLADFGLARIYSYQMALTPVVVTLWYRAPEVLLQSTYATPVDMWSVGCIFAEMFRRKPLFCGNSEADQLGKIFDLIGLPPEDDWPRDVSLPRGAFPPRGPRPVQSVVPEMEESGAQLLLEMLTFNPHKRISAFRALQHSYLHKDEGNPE
T1 sequence (P30281 whole entry partner): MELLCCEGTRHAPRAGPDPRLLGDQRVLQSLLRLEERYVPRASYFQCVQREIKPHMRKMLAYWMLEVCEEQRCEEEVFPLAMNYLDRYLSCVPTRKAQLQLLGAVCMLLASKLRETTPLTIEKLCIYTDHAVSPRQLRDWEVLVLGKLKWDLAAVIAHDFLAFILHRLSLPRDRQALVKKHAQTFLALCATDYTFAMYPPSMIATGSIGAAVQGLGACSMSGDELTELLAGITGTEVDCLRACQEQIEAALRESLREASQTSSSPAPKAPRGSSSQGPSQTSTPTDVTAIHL

Row | IC50 [1, 3] | IC50 [2, 4] | IC50 [1, 5] | IC50 [2, 6] | SMILES
1 | < 10 nM | 10 to 100 nM |  |  | CC(C)Nc1nc(C(F)F)cc2cnc(Nc3ccc(CN4CCC(N(C)C)CC4)cn3)nc12 [Compound 130]
2 | 10 to 100 nM | ≥ 100 nM |  |  | CO[C@H](C)c1cc2cnc(Nc3ccc(CCCN4CCOCC4=O)cn3)nc2c(NC(C)C)n1 [Compound 192]
3 |  |  | < 10 nM | ≥ 100 nM | CCCCNc1nc([C@@H](C)O)cc2cnc(Nc3ccc(CN4CCC[C@@H](O)C4)cn3)nc12 [Compound 1185]
4 |  |  | < 10 nM | ≥ 100 nM | CC(C)Nc1nc(C2CCOC2)cc2cnc(Nc3ccc4c(n3)CCN(CCO)C4)nc12 (stereo not drawn) [Compound 1229]
5 | 10 to 100 nM | 10 to 100 nM |  |  | CC(C)Nc1nc(C(F)F)cc2cnc(Nc3ccc(S(=O)(=O)CCCO)cn3)nc12 [Compound 112]
6 | < 10 nM | ≥ 100 nM |  |  | CO[C@H](C)c1cc2cnc(Nc3ccc(CN4CCNCC4)cn3)nc2c(NCC2CCOC2)n1 (stereo partly drawn) [Compound 320]
7 |  |  | < 10 nM | ≥ 100 nM | CC(C)Nc1nc([C@@H](C)O)cc2cnc(Nc3ccc(CN4CC5CCC(C4)N5C)cn3)nc12 [Compound 1224]
8 | < 10 nM | ≥ 100 nM |  |  | CO[C@H](C)c1cc2cnc(Nc3ccc(N4CCNCC4)cn3)nc2c(NC(C)C)n1 [Compound 39]
9 |  |  | < 10 nM | ≥ 100 nM | CC1(c2cc3cnc(Nc4ccc(N5CCNCC5)nn4)nc3c(N[C@H]3CCCOC3)n2)COC1 [Compound 880]
10 | < 10 nM | ≥ 100 nM |  |  | CC(=O)N(Cc1ccc(Nc2ncc3cc(C(F)F)nc(NC(C)C)c3n2)nc1)C[C@@H]1CCCO1 [Compound 146]
11 | < 10 nM | ≥ 100 nM |  |  | CN(C)CCOc1ccc(Nc2ncc3cc(C(F)F)nc(N[C@H]4CCCOC4)c3n2)nc1 [Compound 382]
12 |  |  | < 10 nM | ≥ 100 nM | CCCCNc1nc([C@@H](C)O)cc2cnc(Nc3ccc(CN4CCC[C@H](O)C4)cn3)nc12 [Compound 1188]
13 | < 10 nM | ≥ 100 nM |  |  | CC(C)Nc1nc([C@@H](C)O)cc2cnc(Nc3ccc(N4CC5(CCN5)C4)nn3)nc12 [Compound 573]
14 | < 10 nM | ≥ 100 nM |  |  | C[C@@H](O)c1cc2cnc(Nc3ccc(N4CCNCC4=O)cn3)nc2c(N[C@H]2CCCOC2)n1 [Compound 347]
15 |  |  | < 10 nM | ≥ 100 nM | CC(=O)c1nc(NC(C)C)c2nc(Nc3ccc(N4CCNCC4=O)cn3)ncc2c1Cl [Compound 1031]
16 | < 10 nM | 10 to 100 nM |  |  | CO[C@H](C)c1cc2cnc(Nc3ccc(N4CC5(CNC5)CC4=O)cn3)nc2c(NC(C)C)n1 [Compound 511]
17 |  |  | < 10 nM | ≥ 100 nM | CC(C)Nc1nc([C@@H](C)O)cc2cnc(Nc3ccc(N4CCN(C(=O)CO)CC4)cn3)nc12 [Compound 1090]
18 |  |  | < 10 nM | ≥ 100 nM | C[C@@H](O)c1cc2cnc(Nc3ccc(CN4CCCC(O)C4)cn3)nc2c(NCC2CC2)n1 (stereo partly drawn) [Compound 1083]
19 |  |  | < 10 nM | ≥ 100 nM | CC(C)Nc1nc([C@@H](C)O)cc2cnc(Nc3ccc(N4CCN(C(C)(C)CO)CC4)nn3)nc12 [Compound 701]
20 |  |  | 10 to 100 nM | ≥ 100 nM | CC(C)Nc1nc([C@@H](C)O)cc2cnc(Nc3ccc(N4CCCC(C(=O)O)C4)nn3)nc12 (stereo partly drawn) [Compound 793]
21 | ≥ 100 nM | ≥ 100 nM |  |  | C[C@@H](O)c1cc2cnc(Nc3ccc(N4CCNCC4)nn3)nc2c(NC2(C(=O)O)CCCC2)n1 [Compound 316]
22 | 10 to 100 nM | ≥ 100 nM |  |  | CC(C)Nc1nc(C(F)F)cc2cnc(Nc3ccc(CNS(N)(=O)=O)cn3)nc12 [Compound 187]

Row | IC50 [1, 3] | IC50 [2, 4] | IC50 [1, 5] | IC50 [2, 6] | SMILES
23 | < 10 nM | ≥ 100 nM |  |  | CC(C)Nc1nc(C(C)O)cc2cnc(Nc3ccc(N4CCNCC4)cn3)nc12 (stereo not drawn) [Compound 9]
24 | < 10 nM | ≥ 100 nM |  |  | CC(C)Oc1nc(C(C)O)cc2cnc(Nc3ccc(N4CCNCC4)nn3)nc12 (stereo not drawn) [Compound 269]
25 |  |  | 10 to 100 nM | ≥ 100 nM | CCC(O)c1cc2cnc(Nc3ccc(N4CCNCC4=O)cn3)nc2c(NC(C)C)n1 (stereo not drawn) [Compound 1037]
26 |  |  | < 10 nM | ≥ 100 nM | CC(C)Nc1nc([C@@H](C)O)cc2cnc(Nc3ccc(N4CCNCC4C(F)(F)F)nn3)nc12 (stereo partly drawn) [Compound 863]
27 | < 10 nM | ≥ 100 nM |  |  | CC(O)c1cc2cnc(Nc3ccc(N4CCNCC4=O)cn3)nc2c(NC2CCCOC2)n1 (stereo not drawn) [Compound 346]
28 | 10 to 100 nM | ≥ 100 nM |  |  | COCC(C)(C)Nc1nc([C@@H](C)O)cc2cnc(Nc3ccc(CN4CCN(CC(F)F)CC4)cn3)nc12 [Compound 299]
29 | < 10 nM | ≥ 100 nM |  |  | O[C@H]1CC[C@H](Nc2nc(C(F)F)cc3cnc(Nc4ccc(CN5CCNCC5)cn4)nc23)CC1 [Compound 386]
30 | < 10 nM | 10 to 100 nM |  |  | CC(C)Nc1nc(C(F)F)cc2cnc(Nc3ccc(CCCNS(C)(=O)=O)cn3)nc12 [Compound 153]
31 |  |  | < 10 nM | ≥ 100 nM | COC[C@@H](C)Nc1nc([C@@H](C)O)cc2cnc(Nc3ccc(CN4CCN(C)CC4)cn3)nc12 [Compound 1105]
32 | < 10 nM | ≥ 100 nM |  |  | CO[C@H](C)c1cc2cnc(Nc3ccc(N4CCN[C@@H](C)C4=O)cn3)nc2c(NC(C)C)n1 [Compound 463]
33 |  |  | < 10 nM | ≥ 100 nM | CCCNc1nc([C@@H](C)O)cc2cnc(Nc3ccc(CN4CCN(CCO)CC4)c(C)n3)nc12 [Compound 1047]
34 |  |  | < 10 nM | ≥ 100 nM | CC(O)c1cc2cnc(Nc3ccc(OC4CCNCC4F)cn3)nc2c(NC2CCCOC2)n1 (stereo not drawn) [Compound 645]
35 |  |  | 10 to 100 nM | ≥ 100 nM | CO[C@H](C)c1cc2cnc(Nc3ccc(CN4CCN(C(C)(C)C(=O)O)CC4)cn3)nc2c(NC(C)C)n1 [Compound 679]
36 | < 10 nM | ≥ 100 nM |  |  | C[C@@H](O)c1cc2cnc(Nc3ccc(N4CCNCC4)nn3)nc2c(N[C@@H]2CCCOC2)n1 [Compound 254]
37 | 10 to 100 nM | ≥ 100 nM |  |  | CO[C@H](C)c1cc2cnc(Nc3ccc(CN4CCOCC4)cn3)nc2c(NC(C)C)n1 [Compound 172]
38 |  |  | < 10 nM | ≥ 100 nM | CO[C@H](C)c1cc2cnc(Nc3ccc4c(n3)CCN(C(=O)OCCN(C)C)C4)nc2c(N[C@H]2CCCOC2)n1 [Compound 1135]
39 |  |  | 10 to 100 nM | ≥ 100 nM | CC(C)Nc1nc([C@@H](C)O)cc2cnc(Nc3ccc(N4CCNC5(CC5)C4=O)cn3)nc12 [Compound 733]
40 |  |  | < 10 nM | ≥ 100 nM | CC(C)Nc1nc(C2(C)COC2)cc2cnc(Nc3ccc4c(n3)CCNC4)nc12 [Compound 887]
41 |  |  | < 10 nM | ≥ 100 nM | CC(C)Nc1nc(C(C)O)cc2cnc(Nc3ccc(N4CCC(O)C5(CC5)C4)nn3)nc12 (single isomer, unassigned) [Compound 725]
42 |  |  | 10 to 100 nM | ≥ 100 nM | CC(C)Nc1nc(C2CCCO2)cc2cnc(Nc3ccc(CN4CCNCC4)cn3)nc12 (single isomer, unassigned) [Compound 730]
43 |  |  | < 10 nM | ≥ 100 nM | C[C@@H](O)c1cc2cnc(Nc3ccc(N4CCN(C)CC4)nn3)nc2c(N[C@H]2CCCOC2)n1 [Compound 640]
44 |  |  | < 10 nM | ≥ 100 nM | CCCNc1nc(C2(C)COC2)cc2cnc(Nc3ccc(N4CCNCC4)cn3)nc12 [Compound 1002]

Row | SMILES | IC50 [1, 3] | IC50 [2, 4] | IC50 [1, 5] | IC50 [2, 6]
45 | CCNc1nc([C@@H](C)O)cc2cnc(Nc3ccc(CN4CC5CCC(C4)N5C)cn3)nc12 [Compound 1222] |  |  | < 10 nM | ≥ 100 nM
